From US20130029928A1 (priority 2010, published 2013)
Where two headings read alike, the source gives them in different places.

Assay: Phase I study CXR1002-001: plasma pharmacokinetics (LC-MS/MS)
Assay type: in vivo, human
Details: human, plasma, oral; for concentration at 843 h / concentration at 844 h / concentration at 864 h / concentration at 3 h / concentration at 4 h / concentration at 24 h / concentration at 168 h / concentration at 170 h / concentration at 171 h / concentration at 192 h / concentration at 336 h / concentration at 338 h / concentration at 339 h / concentration at 340 h / concentration at 360 h / concentration at 504 h / concentration at 506 h / concentration at 507 h / concentration at 508 h / concentration at 528 h / concentration at 672 h / concentration at 674 h / concentration at 675 h / concentration at 676 h / concentration at 696 h / concentration at 840 h / concentration at 842 h / concentration at 2 h / concentration at 172 h: read-out: Concentration; for concentration at 864 h: 864 hr (Day 37); for concentration at 24 h: 24 hr (Day 2); for concentration at 168 h: 168 hr (Day 8); for concentration at 336 h: 336 hr (Day 15); for concentration at 504 h: 504 hr (Day 22); for concentration at 528 h: 528 hr (Day 23); for concentration at 672 h: 672 hr (Day 29); for concentration at 840 h: 840 hr (Day 36)
Source text: PK samples, PD (fasting) samples, blood glucose, and blood triglyceride samples, were taken over a 6-week period.
Dose limiting toxicity (DLT) will be based on the toxicity assessments over the first 3-week period of the repeat dosing schedule. PK samples (single blood sample) were taken on the following basis: • Every 6 weeks during the repeat dosing phase • If dosing is interrupted or stopped, samples will be taken at intervals according to patient convenience • PK sampling for safety evaluation may take place at any time, as clinically indicated
Plasma samples were collected after the single 50 mg dose at the following timepoints: Pre-dose, and then 0.25, 0.5, 0.75, 1, 1.5, 2, 3, 4, 6, 24, 48, and 72 hours after administration and then once weekly at weeks 2, 3, 4, 5, and 6 (days 8, 15, 22, 29, and 36). For patients treated with the weekly repeat dose, plasma samples were collected at the following timepoints: Pre-dose and then 2, 3, 4 and 24 hours after administration for a total of 6 weeks. Thereafter a single sample was collected every 6 weeks for monitoring of exposure during long term treatment. Plasma samples were processed at site and stored at −80° C. prior to batch shipment to the analytical laboratory.

[1] = 300 mg, Patient 014 Dose 300 mg
[2] = 450 mg, Patient 015 Dose 450 mg
[3] = 450 mg, Patient 016 Dose 450 mg
[4] = 450 mg, Patient 017 Dose 450 mg
[5] = 600 mg, Patient 018, 600 mg, person
[6] = 600 mg, Patient 020, 600 mg, person
[7] = 600 mg, Patient 021, 600 mg, person

In the case of `O=C(O)C(F)(F)C(F)(F)C(F)(F)C(F)(F)C(F)(F)C(F)(F)C(F)(F)F` [CXR1002], the concentration at 843 h [1] is reported as 520 µM, the concentration at 844 h [1] is reported as 563 µM and the concentration at 864 h [1] is reported as 488 µM. It also gave a concentration at 12 week (300 mg, Patient 014 Dose 300 mg, Week 12) of 890 µM, a concentration at 18 week (300 mg, Patient 014 Dose 300 mg, Week 18) of 980 µM and a concentration at 3 h [2] of 231 µM. For the same compound, the concentration at 4 h [2] was 217 µM, the concentration at 24 h [2] was 126 µM and the concentration at 168 h [2] was 138 µM. It also gave a concentration at 170 h [2] of 325 µM, a concentration at 171 h [2] of 314 µM and a concentration at 192 h (450 mg, Patient 015 Dose 450 mg, 192 hr (Day 9)) of 294 µM. It also gave a concentration at 336 h [2] of 286 µM, a concentration at 338 h [2] of 463 µM and a concentration at 339 h [2] of 393 µM. It also gave a concentration at 340 h [2] of 424 µM, a concentration at 360 h (450 mg, Patient 015 Dose 450 mg, 360 hr (Day 16)) of 412 µM and a concentration at 504 h [2] of 387 µM. For the same compound, the concentration at 506 h [2] was 579 µM, the concentration at 507 h [2] was 548 µM and the concentration at 508 h [2] was 513 µM. The concentration at 528 h [2] was 551 µM, the concentration at 672 h [2] was 544 µM and the concentration at 674 h [2] was 622 µM. It also gave a concentration at 675 h [2] of 633 µM, a concentration at 676 h [2] of 675 µM and a concentration at 696 h (450 mg, Patient 015 Dose 450 mg, 696 hr (Day 30)) of 708 µM. For the same compound, the concentration at 840 h [2] was 575 µM, the concentration at 842 h [2] was 703 µM and the concentration at 843 h [2] was 655 µM. For the same compound, the concentration at 844 h [2] was 801 µM, the concentration at 864 h [2] was 592 µM and the concentration at 2 h [3] was 108 µM. The concentration at 3 h [3] was 126 µM, the concentration at 4 h [3] was 88.1 µM and the concentration at 24 h [3] was 164 µM. For the same compound, the concentration at 170 h [3] was 328 µM, the concentration at 171 h [3] was 255 µM and the concentration at 172 h [3] was 244 µM. The concentration at 192 h (450 mg, Patient 016 Dose 450 mg, 192 hr (Day 9)) was 348 µM, the concentration at 336 h [3] was 287 µM and the concentration at 338 h [3] was 418 µM. The concentration at 339 h [3] was 454 µM, the concentration at 340 h [3] was 442 µM and the concentration at 360 h (450 mg, Patient 016 Dose 450 mg, 360 hr (Day 16)) was 471 µM. It also gave a concentration at 504 h [3] of 546 µM, a concentration at 506 h [3] of 693 µM and a concentration at 507 h [3] of 721 µM. The concentration at 508 h [3] was 698 µM, the concentration at 528 h [3] was 692 µM and the concentration at 672 h [3] was 605 µM. For the same compound, the concentration at 674 h [3] was 907 µM, the concentration at 675 h [3] was 745 µM and the concentration at 676 h [3] was 732 µM. The concentration at 696 h (450 mg, Patient 016 Dose 450 mg, 696 hr (Day 30)) was 871 µM, the concentration at 2 h [4] was 99.7 µM and the concentration at 3 h [4] was 136 µM. It also gave a concentration at 4 h [4] of 163 µM, a concentration at 336 h [4] of 216 µM and a concentration at 338 h [4] of 325 µM. It also gave a concentration at 339 h [4] of 342 µM, a concentration at 360 h (450 mg, Patient 017 Dose 450 mg, 360 hr) of 258 µM and a concentration at 672 h [4] of 404 µM. The concentration at 674 h [4] was 451 µM, the concentration at 675 h [4] was 497 µM and the concentration at 676 h [4] was 485 µM. It also gave a concentration at 696 h (450 mg, Patient 017 Dose 450 mg, 696 hr) of 483 µM, a concentration at 2 h [5] of 339 µM and a concentration at 3 h [5] of 280 µM. It also gave a concentration at 4 h [5] of 248 µM, a concentration at 24 h [5] of 213 µM and a concentration at 168 h [5] of 181 µM. It also gave a concentration at 170 h [5] of 398 µM, a concentration at 171 h [5] of 407 µM and a concentration at 192 h (600 mg, Patient 018, 600 mg, person, 192 hr (day 9)) of 386 µM. For the same compound, the concentration at 336 h [5] was 356 µM, the concentration at 338 h [5] was 551 µM and the concentration at 339 h [5] was 563 µM. The concentration at 340 h [5] was 591 µM, the concentration at 360 h (600 mg, Patient 018, 600 mg, person, 360 hr (Day 16)) was 554 µM and the concentration at 2 h [6] was 208 µM. For the same compound, the concentration at 4 h [6] was 180 µM, the concentration at 24 h [6] was 413 µM and the concentration at 168 h [6] was 125 µM. The concentration at 170 h [6] was 327 µM, the concentration at 171 h [6] was 310 µM and the concentration at 172 h [6] was 279 µM. It also gave a concentration at 192 h (600 mg, Patient 020, 600 mg, person, 192 hr (day 9)) of 268 µM, a concentration at 336 h [6] of 272 µM and a concentration at 338 h [6] of 474 µM. It also gave a concentration at 339 h [6] of 434 µM, a concentration at 340 h [6] of 438 µM and a concentration at 360 h (600 mg, Patient 020, 600 mg, person, 360 hr (Day 16)) of 410 µM. It also gave a concentration at 504 h [6] of 441 µM, a concentration at 506 h [6] of 477 µM and a concentration at 507 h [6] of 526 µM. The concentration at 508 h [6] was 536 µM, the concentration at 528 h [6] was 563 µM and the concentration at 672 h [6] was 540 µM. It also gave a concentration at 674 h [6] of 547 µM, a concentration at 675 h [6] of 603 µM and a concentration at 676 h [6] of 652 µM. The concentration at 696 h (600 mg, Patient 020, 600 mg, person, 696 hr (Day 30)) was 615 µM, the concentration at 840 h [6] was 582 µM and the concentration at 842 h [6] was 700 µM. The concentration at 843 h [6] was 764 µM, the concentration at 844 h [6] was 770 µM and the concentration at 864 h [6] was 703 µM. It also gave a concentration at 2 h [7] of 77.2 µM, a concentration at 3 h [7] of 121 µM and a concentration at 24 h [7] of 203 µM. The concentration at 168 h [7] was 218 µM, the concentration at 170 h [7] was 504 µM and the concentration at 171 h [7] was 417 µM. The concentration at 172 h [7] was 451 µM.
